Assay [1] concerns E. coli 0157:H7 (ATCC# 700728). The experiment in a line: Dip treatment of inoculated beef adipose, log reduction. It counts as cell-based. As to conditions: formulations diluted to 1% w/w + 2% lactic acid; for Log Reduction, 60 min at 5° C. / Log Reduction, 24 hours at 5° C.: 5 min treatment.
Procedure: Bacteria were grown in the same procedure described in Example 3. The bacteria strain was non-toxic E. coli 0157: H7 (ATCC# 700728).
After inoculation, the meat pieces were placed in a cooler at 5° C. for 30+/−5 minutes to allow attachment of the organisms.
A 11.4 cm^2 coring device was used to cut surface tissue excisions no thicker than 3 mm from the inoculated samples. The stainless steel coring device was disinfected prior to each run to prevent cross-contamination among the samples. Each circular tissue excision was placed in a filter stomacher bag with 15 ml of letheen diluent and stomached for 1 minuted prior to plating.
A 11.4 cm^2 coring device was used to cut surface tissue excisions no thicker than 3 mm from the inoculated samples. The stainless steel coring device was disinfected prior to each run to prevent cross-contamination among the meat samples.
The solution was shaken well until a milky emulsion formed. The emulsion solutions were used immediately after being made.
The circles were removed immediately and the excess solution was allowed to drip from the circle for 5 sec.
The circles were placed in stomacher bags. Two of them were placed into the refrigerator and the third was tested by adding 15 ml of Letheen diluent to the third stomacher bag. This bag was stomached for 1 minute prior to plating. Duplicate samples were plated from the undiluted sample in the stomacher bag. Serial ten-fold dilutions were made and plated on a [sequence] EB plate from each dilution. After incubation the plates were counted as recommended on the package insert. After 1 h refrigeration, one of the refrigerated stomacher bags was removed and the above steps repeated for the 1 h test circle. After 24 h refrigeration, the last of the stomacher bags was removed and the above steps repeated for the 24 h test circle.
Plates were read after incubation and log reductions determined as indicated in Example 3.
In assay [2] the test system is Staph. aureus, ATCC 25923. The experiment in a line: In vitro kill test of diluted formulations at 5° C., log reduction. It counts as cell-based, Staphylococcus aureus.

For the molecule `CC(O)C(=O)O` (stereo not drawn) [2% Lactic Acid, Lactic Acid], in assay [1] (solution at 5° C.), the “Log Reduction, 60 min at 5° C.” value is on record as 1.37 log; the “Log Reduction, 24 hours at 5° C.” value turned out to be 2.26 log; the “Log Reduction, 5 min dip” value was found to be 0.51 log. Further, in assay [1] (solution at 23° C.), the “Log Reduction, 60 min at 5° C.” value worked out at 1.74 log and the “Log Reduction, 5 min dip” value is on record as 0.87 log. Besides, in assay [1] (solution at 50° C.), the “Log Reduction, 60 min at 5° C.” value amounted to 2.43 log; the “Log Reduction, 24 hours at 5° C.” value is reported as 2.54 log; the “Log Reduction, 5 min dip” value was determined as 1.72 log. Moreover, in assay [2], the “Log Reduction” value is under 2.72 log.
